Patent US9845340B2, “Peptides that specifically bind HGF receptor (cMet) and uses thereof” (Dyax Corp., priority 2003, dated 2017)

Experiments:
cMet-Fc fusion protein = cMet-Fc fusion protein (Homo sapiens, UniProt P08581); experiment: Protein phage ELISA: peptide-displaying phage binding to soluble cMet-Fc versus TRAIL-Fc; conditions: phage isolate; cMet-Fc vs. TRAIL-Fc
Experimental: Protein phage ELISAs using peptide-displaying phage isolates from the various selection campaigns were performed to determine specificity of the peptides for cMet versus an unrelated Fc-fusion protein (TRAIL-Fc). Briefly, 384-well plates were coated overnight at 4 C with 0.5 μg/mL of cMet-Fc fusion protein or TRAIL-Fc fusion protein (background). The plates were blocked for 2 hours 37C with 3% (w/v) BSA in PBS containing 0.05% (v/v) Tween-20 (PBST). The plates were washed with PBST and 100 μL of peptide-displaying phage were added to each well. The plates were incubated for 2 hours at room temperature and washed with PBST. cMet-binding peptide-displaying phage were detected using an HRP-conjugated anti-M13 antibody.

[1] = biological target: T1, 3T3 cells that over-express human cMet (Homo sapiens, UniProt P08581); experiment: Whole cell ELISA of peptide-displaying phage; assay type: cell-based; conditions: phage isolate; 3T3 cells expressing human cMet vs. non-expressing 3T3 cells
T1 construct: expressed in transfected cells; host or cells: 3T3 cells
Experimental: Whole cell ELISAs were performed using 3T3 cells that over-express human cMet. […] Briefly, 96-well plates were seeded with 10^5 cells per well. The plates were centrifuged for 5 minutes at 1600 rpm to pellet the cells. The resulting cell layer was fixed with 0.1% (v/v) glutaraldehyde for 12 minutes at 37 C. […] Peptide-displaying phage also were blocked in the above solution for 1 hour at 37 C. 100 μL of blocked phage was then added to each well and the plates were incubated for 1 hour at room temperature. The plates were washed with PBST. cMet-binding peptide-displaying phage were detected using an HRP-conjugated anti-M13 antibody.

Sequence of cMet-Fc fusion protein (P08581 25-307 limits assumed): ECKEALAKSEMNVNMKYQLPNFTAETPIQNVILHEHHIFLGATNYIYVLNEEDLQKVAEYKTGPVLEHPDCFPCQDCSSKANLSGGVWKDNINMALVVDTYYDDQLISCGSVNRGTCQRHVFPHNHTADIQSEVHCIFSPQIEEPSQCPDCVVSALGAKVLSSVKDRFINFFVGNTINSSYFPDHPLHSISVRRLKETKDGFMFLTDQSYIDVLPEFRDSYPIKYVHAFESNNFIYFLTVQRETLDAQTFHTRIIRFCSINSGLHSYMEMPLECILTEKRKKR
Sequence of cMet-Fc fusion protein (P08581 with tags, fused parts or gaps limits assumed): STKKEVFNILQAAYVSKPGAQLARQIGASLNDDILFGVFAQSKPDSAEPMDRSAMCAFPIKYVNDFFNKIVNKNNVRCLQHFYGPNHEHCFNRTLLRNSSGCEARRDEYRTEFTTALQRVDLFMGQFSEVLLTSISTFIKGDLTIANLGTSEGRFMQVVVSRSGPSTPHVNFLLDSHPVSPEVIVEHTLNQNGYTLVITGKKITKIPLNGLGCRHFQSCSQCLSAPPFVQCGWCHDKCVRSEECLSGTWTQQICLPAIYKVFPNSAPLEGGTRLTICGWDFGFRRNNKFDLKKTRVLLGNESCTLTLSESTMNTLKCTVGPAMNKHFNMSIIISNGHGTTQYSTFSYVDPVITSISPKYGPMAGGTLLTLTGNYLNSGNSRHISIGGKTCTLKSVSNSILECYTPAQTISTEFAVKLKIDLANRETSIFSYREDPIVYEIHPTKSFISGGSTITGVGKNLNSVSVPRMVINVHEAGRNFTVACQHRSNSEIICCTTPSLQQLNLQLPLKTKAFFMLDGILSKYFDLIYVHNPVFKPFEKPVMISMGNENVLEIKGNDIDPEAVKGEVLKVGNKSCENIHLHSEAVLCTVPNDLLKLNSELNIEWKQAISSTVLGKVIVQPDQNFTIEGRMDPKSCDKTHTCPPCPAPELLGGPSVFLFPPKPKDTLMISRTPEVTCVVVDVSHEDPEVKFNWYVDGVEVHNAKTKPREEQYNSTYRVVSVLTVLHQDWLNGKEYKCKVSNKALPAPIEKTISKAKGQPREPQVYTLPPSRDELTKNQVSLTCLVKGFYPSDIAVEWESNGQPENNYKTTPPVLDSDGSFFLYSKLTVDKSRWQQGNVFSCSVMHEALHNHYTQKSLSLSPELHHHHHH
T1 sequence (P08581 25-1390): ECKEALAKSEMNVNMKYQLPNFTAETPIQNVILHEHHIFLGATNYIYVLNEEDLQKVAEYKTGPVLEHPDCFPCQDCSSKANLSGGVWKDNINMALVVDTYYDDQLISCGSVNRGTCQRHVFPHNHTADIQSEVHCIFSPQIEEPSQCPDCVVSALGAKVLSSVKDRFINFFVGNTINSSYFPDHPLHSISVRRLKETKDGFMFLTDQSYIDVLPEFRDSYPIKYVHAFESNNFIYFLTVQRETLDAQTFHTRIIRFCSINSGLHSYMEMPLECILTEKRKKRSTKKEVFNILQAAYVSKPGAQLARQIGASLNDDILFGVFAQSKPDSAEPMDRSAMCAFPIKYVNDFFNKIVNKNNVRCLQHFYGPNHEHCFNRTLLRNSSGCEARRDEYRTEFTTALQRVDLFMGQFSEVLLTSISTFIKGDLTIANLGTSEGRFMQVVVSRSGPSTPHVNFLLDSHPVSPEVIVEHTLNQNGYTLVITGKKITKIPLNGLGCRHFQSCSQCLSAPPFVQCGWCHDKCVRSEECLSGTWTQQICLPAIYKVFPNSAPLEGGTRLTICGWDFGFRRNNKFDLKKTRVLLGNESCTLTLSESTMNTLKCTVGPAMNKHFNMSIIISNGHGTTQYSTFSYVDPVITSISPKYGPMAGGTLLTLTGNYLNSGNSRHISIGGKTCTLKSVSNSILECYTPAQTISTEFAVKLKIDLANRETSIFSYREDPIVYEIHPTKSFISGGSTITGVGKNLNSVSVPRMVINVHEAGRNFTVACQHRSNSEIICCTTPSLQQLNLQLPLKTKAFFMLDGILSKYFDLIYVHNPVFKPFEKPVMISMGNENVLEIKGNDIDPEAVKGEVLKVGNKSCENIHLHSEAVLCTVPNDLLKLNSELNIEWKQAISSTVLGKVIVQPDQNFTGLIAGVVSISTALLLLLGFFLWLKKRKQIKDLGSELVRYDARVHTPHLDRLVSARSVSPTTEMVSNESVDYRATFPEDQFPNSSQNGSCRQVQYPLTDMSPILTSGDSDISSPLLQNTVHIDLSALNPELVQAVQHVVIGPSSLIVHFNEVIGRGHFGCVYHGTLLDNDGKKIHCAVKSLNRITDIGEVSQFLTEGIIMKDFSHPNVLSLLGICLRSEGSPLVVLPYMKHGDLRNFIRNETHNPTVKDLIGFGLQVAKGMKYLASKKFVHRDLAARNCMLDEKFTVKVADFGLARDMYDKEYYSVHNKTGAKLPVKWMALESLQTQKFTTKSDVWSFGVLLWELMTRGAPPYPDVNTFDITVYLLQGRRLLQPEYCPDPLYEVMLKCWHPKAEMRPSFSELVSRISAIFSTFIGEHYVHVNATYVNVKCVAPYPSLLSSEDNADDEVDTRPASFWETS

Structure (SMILES)	Protein ELISA (cMet-Fc fusion protein) [fold over background]	WC ELISA [1] [fold over background]
CC[C@H](C)[C@H](NC(=O)[C@H](Cc1c[nH]c2ccccc12)NC(=O)[C@H](Cc1c[nH]cn1)NC(=O)CNC(=O)[C@H](C)NC(C)=O)C(=O)N[C@H]1CSSC[C@@H](C(=O)N[C@@H](CCC(N)=O)C(=O)N[C@@H](Cc2c[nH]c3ccccc23)C(=O)N[C@@H](Cc2c[nH]cn2)C(=O)NCC(=O)N[C@H](C(=O)NCC(=O)NCC(=O)NCC(=O)N[C@@H](CCCCNC(=O)c2ccc3c(c2)C(=O)OC32c3ccc(O)cc3Oc3cc(O)ccc32)C(N)=O)[C@@H](C)O)NC(=O)[C@H](CO)NC(=O)[C@H](Cc2ccccc2)NC(=O)[C@H]([C@@H](C)O)NC(=O)[C@@H]2CCCN2C(=O)[C@@H]2CCCN2C(=O)CNC(=O)[C@H](C(C)C)NC1=O [SEQ ID NO: 071]	13.5	1.40
CC(=O)N[C@@H](C)C(=O)NCC(=O)N[C@@H](CCC(=O)O)C(=O)N[C@@H](Cc1c[nH]c2ccccc12)C(=O)N[C@@H](Cc1c[nH]c2ccccc12)C(=O)N[C@H]1CSSC[C@@H](C(=O)N[C@@H](Cc2ccc(O)cc2)C(=O)N[C@@H](Cc2c[nH]c3ccccc23)C(=O)N[C@H](C(=O)NCC(=O)N[C@H](C(=O)NCC(=O)NCC(=O)NCC(=O)N[C@@H](CCCCNC(=O)c2ccc3c(c2)C(=O)OC32c3ccc(O)cc3Oc3cc(O)ccc32)C(N)=O)[C@@H](C)O)[C@@H](C)O)NC(=O)[C@H](CC(C)C)NC(=O)[C@H](Cc2ccccc2)NC(=O)[C@H](CCC(=O)O)NC(=O)[C@@H]2CCCN2C(=O)[C@@H]2CCCN2C(=O)CNC(=O)[C@H](Cc2c[nH]cn2)NC1=O [SEQ ID NO: 072]	12.6	1.47
CC[C@H](C)[C@H](NC(=O)[C@H](CO)NC(=O)CNC(=O)[C@H](C)NC(C)=O)C(=O)N[C@@H](CCC(N)=O)C(=O)N[C@H]1CSSC[C@@H](C(=O)N[C@H](C(=O)N2CCC[C@H]2C(=O)N[C@@H](Cc2ccc(O)cc2)C(=O)NCC(=O)N[C@H](C(=O)NCC(=O)NCC(=O)NCC(=O)N[C@@H](CCCCNC(=O)c2ccc3c(c2)C(=O)OC32c3ccc(O)cc3Oc3cc(O)ccc32)C(N)=O)[C@@H](C)O)[C@@H](C)O)NC(=O)[C@H](CCC(=O)O)NC(=O)[C@H](Cc2ccccc2)NC(=O)[C@H](CO)NC(=O)[C@@H]2CCCN2C(=O)[C@@H]2CCCN2C(=O)CNC(=O)[C@H](C(C)C)NC1=O [SEQ ID NO: 074]	6.7	1.37
CC[C@H](C)[C@H](NC(=O)[C@H](Cc1c[nH]c2ccccc12)NC(=O)[C@H](CC(N)=O)NC(=O)CNC(=O)[C@H](C)NC(C)=O)C(=O)N[C@H]1CSSC[C@@H](C(=O)N[C@@H](Cc2c[nH]c3ccccc23)C(=O)N[C@@H](Cc2ccc(O)cc2)C(=O)N[C@@H](Cc2c[nH]cn2)C(=O)NCC(=O)N[C@H](C(=O)NCC(=O)NCC(=O)NCC(=O)N[C@@H](CCCCNC(=O)c2ccc3c(c2)C(=O)OC32c3ccc(O)cc3Oc3cc(O)ccc32)C(N)=O)[C@@H](C)O)NC(=O)CNC(=O)[C@H](Cc2ccccc2)NC(=O)[C@H](CO)NC(=O)[C@@H]2CCCN2C(=O)[C@@H]2CCCN2C(=O)CNC(=O)[C@H]([C@@H](C)O)NC1=O [SEQ ID NO: 078]	4.7	1.40
CC[C@H](C)[C@@H]1NC(=O)[C@H](Cc2ccc(O)cc2)NC(=O)[C@H]([C@@H](C)O)NC(=O)[C@H](CCC(=O)O)NC(=O)[C@H](CC(C)C)NC(=O)[C@H](CC(=O)O)NC(=O)[C@H](Cc2ccccc2)NC(=O)[C@H](CC(=O)O)NC(=O)[C@@H](NC(=O)[C@H](Cc2ccc(O)cc2)NC(=O)[C@H](CC(=O)O)NC(=O)[C@H](Cc2ccc(O)cc2)NC(=O)[C@H](CC(=O)O)NC(=O)CNC(C)=O)CSSC[C@@H](C(=O)N[C@@H](Cc2c[nH]cn2)C(=O)N[C@@H](CO)C(=O)N[C@@H](Cc2ccc(O)cc2)C(=O)N[C@@H](CC(=O)O)C(=O)N2CCC[C@H]2C(=O)NCC(=O)NCC(=O)NCC(=O)N[C@@H](CCCCNC(=O)c2ccc3c(c2)C(=O)OC32c3ccc(O)cc3Oc3cc(O)ccc32)C(N)=O)NC(=O)[C@H](CCC(=O)O)NC(=O)[C@@H]2CCCN2C1=O [SEQ ID NO: 390]	16.1	1.27
CC[C@H](C)[C@@H]1NC(=O)[C@H](Cc2ccccc2)NC(=O)[C@H](CCC(=O)O)NC(=O)[C@@H](NC(=O)[C@H](Cc2c[nH]cn2)NC(=O)[C@H](Cc2ccccc2)NC(=O)[C@H](CC(=O)O)NC(=O)[C@H](CC(=O)O)NC(=O)CNC(C)=O)CSSC[C@@H](C(=O)N[C@@H](Cc2ccc(O)cc2)C(=O)N[C@@H](Cc2ccccc2)C(=O)N[C@@H](CC(N)=O)C(=O)N[C@@H](CC(=O)O)C(=O)N2CCC[C@H]2C(=O)NCC(=O)NCC(=O)NCC(=O)N[C@@H](CCCCNC(=O)c2ccc3c(c2)C(=O)OC32c3ccc(O)cc3Oc3cc(O)ccc32)C(N)=O)NC(=O)[C@H]([C@@H](C)CC)NC(=O)[C@H](CCC(=O)O)NC(=O)[C@H](CO)NC(=O)[C@H](CCC(N)=O)NC(=O)[C@H](Cc2ccc(O)cc2)NC(=O)[C@H](CC(=O)O)NC(=O)[C@H](CC(=O)O)NC1=O [SEQ ID NO: 391]	12.4	1.37
CC(=O)N[C@@H](C)C(=O)N[C@@H](CCC(N)=O)C(=O)N[C@@H](CCC(N)=O)C(=O)N[C@@H](C)C(=O)N[C@@H](CO)C(=O)N[C@@H](CCCNC(=N)N)C(=O)N[C@@H](Cc1ccccc1)C(=O)N[C@H](C(=O)N[C@@H](Cc1ccccc1)C(=O)N[C@H](C(=O)N[C@@H](CC(=O)O)C(=O)NCC(=O)N[C@@H](CC(=O)O)C(=O)N[C@@H](CO)C(=O)N[C@@H](Cc1ccc(O)cc1)C(=O)N[C@@H](Cc1c[nH]c2ccccc12)C(=O)N[C@@H](Cc1c[nH]c2ccccc12)C(=O)N[C@@H](Cc1ccccc1)C(=O)N[C@@H](CCC(=O)O)C(=O)N[C@@H](CC(=O)O)C(=O)N[C@@H](Cc1ccccc1)C(=O)NCC(=O)NCC(=O)NCC(=O)N[C@@H](CCCCNC(=O)c1ccc2c(c1)C(=O)OC21c2ccc(O)cc2Oc2cc(O)ccc21)C(N)=O)[C@@H](C)O)[C@@H](C)O [SEQ ID NO: 449]	7.0	1.17
CC[C@H](C)[C@H](NC(=O)CNC(=O)[C@H](CCC(N)=O)NC(=O)[C@@H](NC(=O)[C@H](CCC(N)=O)NC(=O)[C@H](C)NC(C)=O)[C@@H](C)CC)C(=O)N[C@@H](CCC(N)=O)C(=O)N[C@@H](CCCCN)C(=O)N[C@H](C(=O)N[C@@H](CCC(=O)O)C(=O)N[C@@H](CCC(N)=O)C(=O)NCC(=O)N[C@@H](CCC(=O)O)C(=O)N[C@@H](Cc1ccccc1)C(=O)N[C@@H](Cc1ccc(O)cc1)C(=O)N[C@@H](Cc1c[nH]c2ccccc12)C(=O)N[C@@H](Cc1ccccc1)C(=O)N[C@@H](CC(N)=O)C(=O)N[C@@H](Cc1c[nH]c2ccccc12)C(=O)N[C@@H](Cc1ccccc1)C(=O)N1CCC[C@H]1C(=O)N[C@@H](C)C(=O)NCC(=O)NCC(=O)NCC(=O)N[C@@H](CCCCNC(=O)c1ccc2c(c1)C(=O)OC21c2ccc(O)cc2Oc2cc(O)ccc21)C(N)=O)[C@@H](C)O [SEQ ID NO: 450]	4.3	1.10
